Reference: patent publication EP2257297B1, “COMPOUNDS FOR USE IN THE TREATMENT OF ACNE, SEBORRHOEA AND SEBHORROEIC DERMATITIS, OR FOR REDUCING SEBUM SECRETION” (priority 2008, dated 2009)

Each molecule was assayed against T1, human MC5R (Homo sapiens, UniProt P33032) (assay: Human MC5R radioligand binding assay ([125I] NDP-MSH displacement, hMC5R membranes)). Details: not given.
T1 construct: purchased Perkin Elmer RBXMC5M400UA
Method: After incubation for 10 mins the phosphate buffer containing the iodine was added to NDP-MSH (10 ul at 1 mg/mL) in a separate eppendorf tube. This was incubated for a further 10 mins.
Resuspended membranes were kept on ice until they were added to the wells of the plate.
Assays were performed in 96 well polypropylene plates. […] This was incubated for 1 hr at 37 °C. Non-specific binding was determined with […] NDP-MSH. Plates were filtered using a Tomtec cell harvester with GF/A filters (Wallac) (presoaked in 0.6% polyethylenimine) and washed three times with 1.0 mL ice-cold wash buffer (the above incubation buffer without 1,10-phenanthroline and Complete™ protease inhibitor tablet). The filters were dried in a 37 °C oven, placed in a sample bag and 5 mL Betaplatescint (Wallac) was added. Prepared filters were counted in cassettes in a Microbeta Trilux (Wallac) for 1 min. […] Data analysis was performed using GraphPad Prism 4, employing competition binding with a single site model and a fixed Hill coefficient. The following equation was used: Y = Bottom + (Top-Bottom)/1/10^(X-logEC50), where X = log(concentration) and Y = binding to fit the data.

T1 sequence (P33032 whole entry): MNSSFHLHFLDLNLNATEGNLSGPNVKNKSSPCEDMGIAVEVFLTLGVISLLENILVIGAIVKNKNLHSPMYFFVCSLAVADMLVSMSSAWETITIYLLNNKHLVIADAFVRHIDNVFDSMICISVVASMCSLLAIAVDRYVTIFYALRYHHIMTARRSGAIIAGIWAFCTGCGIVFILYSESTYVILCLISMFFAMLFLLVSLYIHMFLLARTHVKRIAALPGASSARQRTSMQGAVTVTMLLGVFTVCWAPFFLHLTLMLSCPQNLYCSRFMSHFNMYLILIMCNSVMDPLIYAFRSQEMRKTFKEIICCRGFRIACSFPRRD

Row | IC50 [µM] | Compound
1 | < 0.1 | CC[C@H](CN1CC[C@H](CNC(=O)c2ccc3cc(Cl)ccc3c2)N[C@H](CC(C)(C)N2CCCCC2)C1=O)c1ccccc1 (racemic) [Compound 500, 6-chloro-N-(((3R,5R)-3-(2-methyl-2-(piperidin-1-yl)propyl)-2-oxo-1-((S)-2-phenylbutyl)-1,4-diazepan-5-yl)methyl)-2-naphthamide]
2 | < 0.1 | CC[C@H](CN1CC[C@@H](CNC(=O)c2ccc3cc(Cl)ccc3c2)N[C@@H](CC(C)(C)N2CCCCC2)C1=O)c1ccccc1 (racemic) [Compound 499, 6-chloro-N-(((3S,5S)-3-(2-methyl-2-(piperidin-1-yl)propyl)-2-oxo-1-((S)-2-phenylbutyl)-1,4-diazepan-5-yl)methyl)-2-naphthamide]

Same assay, conditions: hMC5R assay as in Example 102; compounds tested as trifluoroacetate or hydrochloride salts, or as free base

Row | Compound | IC50 [µM]
3 | NC[C@@H]1N[C@H](CNC(=O)/C=C/c2ccc(Cl)cc2)CCN(CC(c2ccccc2)c2ccccc2)C1=O [Compound 275, (E)-N-(((3S,5S)-3-(aminomethyl)-1-(2,2-diphenylethyl)-2-oxo-1,4-diazepan-5-yl)methyl)-3-(4-chlorophenyl)acrylamide] | < 0.1
4 | NC(=O)CC[C@@H]1N[C@H](CNC(=O)/C=C/c2ccc(Cl)cc2)CCN(CC(c2ccccc2)c2ccccc2)C1=O [Compound 298, (E)-N-(((3S,5S)-3-(3-amino-3-oxopropyl)-1-(2,2-diphenylethyl)-2-oxo-1,4-diazepan-5-yl)methyl)-3-(4-chlorophenyl)acrylamide] | < 1
5 | COc1ccc(C(=O)NC[C@@H]2CCN(CC(c3ccccc3)c3ccccc3)C(=O)[C@H](CCCNC(=N)N)N2)c(OC)c1 [Compound 146, N-(((3S,5S)-1-(2,2-diphenylethyl)-3-(3-guanidinopropyl)-2-oxo-1,4-diazepan-5-yl)methyl)-2,4-dimethoxybenzamide] | < 10
6 | N=C(N)NCCC[C@@H]1N[C@H](CNC(=O)Cc2ccc(Cl)c(Cl)c2)CCN(CC(c2ccccc2)c2ccccc2)C1=O [Compound 157, 2-(3,4-dichlorophenyl)-N-(((3S,5S)-1-(2,2-diphenylethyl)-3-(3-guanidinopropyl)-2-oxo-1,4-diazepan-5-yl)methyl)acetamide] | < 10
7 | CCC(CN1CC[C@@H](CNC(=O)c2ccc3ccccc3c2)N[C@@H](CCN)C1=O)c1ccccc1 (mixture of isomers) [Compound 37, (3S,5S)-3-(2-aminoethyl)-5-(N-2-naphthamidomethyl)-1-(2-phenylbutyl)-1,4-diazepan-2-one] | < 0.1
8 | N=C(N)NCCC[C@@H]1N[C@H](CNC(=O)/C=C/c2c(F)cccc2Cl)CCN(CC(c2ccccc2)c2ccccc2)C1=O [Compound 209, (E)-3-(2-chloro-6-fluorophenyl)-N-(((3S,5S)-1-(2,2-diphenylethyl)-3-(3-guanidinopropyl)-2-oxo-1,4-diazepan-5-yl)methyl)acrylamide] | < 0.1
9 | N=C(N)NCCC[C@@H]1N[C@H](CNC(=O)/C=C/c2c(F)cccc2F)CCN(CC(c2ccccc2)c2ccccc2)C1=O [Compound 208, (E)-3-(2,6-difluorophenyl)-N-(((3S,5S)-1-(2,2-diphenylethyl)-3-(3-guanidinopropyl)-2-oxo-1,4-diazepan-5-yl)methyl)acrylamide] | < 0.1
10 | O=C(NC[C@@H]1CCN(Cc2cc(Cl)cc(Cl)c2)C(=O)[C@H](CN2CCCC2)N1)c1ccc(Cl)c(Cl)c1 [Compound 371, 3,4-dichloro-N-(((3S,5S)-1-(3,5-dichlorobenzyl)-2-oxo-3-(pyrrolidin-1-ylmethyl)-1,4-diazepan-5-yl)methyl)benzamide] | < 1
11 | Cc1ccc(C(=O)NC[C@@H]2CCN(CC(c3ccccc3)c3ccccc3)C(=O)[C@H](CCCN3CCCCC3)N2)cc1C [Compound 270, N-(((3S,5S)-1-(2,2-diphenylethyl)-2-oxo-3-(3-(piperidin-1-yl)propyl)-1,4-diazepan-5-yl)methyl)-3,4-dimethylbenzamide] | < 0.1
12 | CCC(CC)CN1CC[C@@H](CNC(=O)c2ccc(Cl)c(Cl)c2)N[C@@H](CCN)C1=O [Compound 346, N-(((3S,5S)-3-(2-aminoethyl)-1-(2-ethylbutyl)-2-oxo-1,4-diazepan-5-yl)methyl)-3,4-dichlorobenzamide] | < 1
13 | CCC(CN1CC[C@@H](CNC(=O)c2ccc(Cl)c(Cl)c2)N[C@@H](CCN)C1=O)c1ccccc1 (stereo partly drawn) [Compound 369, N-(((3S,5S)-3-(2-aminoethyl)-2-oxo-1-(2-phenylbutyl)-1,4-diazepan-5-yl)methyl)-3,4-dichlorobenzamide] | < 1
14 | Cc1cccc(/C=C/C(=O)NC[C@@H]2CCN(CC(c3ccccc3)c3ccccc3)C(=O)[C@H](CCCNC(=N)N)N2)c1 [Compound 191, (E)-N-(((3S,5S)-1-(2,2-diphenylethyl)-3-(3-guanidinopropyl)-2-oxo-1,4-diazepan-5-yl)methyl)-3-m-tolylacrylamide] | < 0.1

Continued, values first:

Row | IC50 [µM] | Compound
15 | < 0.1 | N=C(N)NCCC[C@@H]1N[C@H](CNC(=O)c2cc3ccccc3[nH]2)CCN(CC(c2ccccc2)c2ccccc2)C1=O [Compound 142, N-(((3S,5S)-1-(2,2-diphenylethyl)-3-(3-guanidinopropyl)-2-oxo-1,4-diazepan-5-yl)methyl)-1H-indole-2-carboxamide]
16 | < 1 | NCCC[C@@H]1N[C@H](CNC(=O)c2csc(-c3ccccc3)n2)CCN(CC(c2ccccc2)c2ccccc2)C1=O [Compound 242, N-(((3S,5S)-3-(3-aminopropyl)-1-(2,2-diphenylethyl)-2-oxo-1,4-diazepan-5-yl)methyl)-2-phenylthiazole-4-carboxamide]
17 | < 1 | NCC[C@@H]1N[C@H](CNC(=O)c2ccc(Cl)c(Cl)c2)CCN(CC(c2ccccc2)c2ccccc2)C1=O [Compound 280, N-(((3S,5S)-3-(2-aminoethyl)-1-(2,2-diphenylethyl)-2-oxo-1,4-diazepan-5-yl)methyl)-3,4-dichlorobenzamide]
18 | < 1 | COc1cc(C(=O)NC[C@@H]2CCN(CC(c3ccccc3)c3ccccc3)C(=O)[C@H](CCCNC(=N)N)N2)c(OC)c2ccccc12 [Compound 215, N-(((3S,5S)-1-(2,2-diphenylethyl)-3-(3-guanidinopropyl)-2-oxo-1,4-diazepan-5-yl)methyl)-1,4-dimethoxy-2-naphthamide]
19 | < 0.1 | NCCC[C@@H]1N[C@H](CNC(=O)/C=C/c2ccc(F)cc2F)CCN(CC(c2ccccc2)c2ccccc2)C1=O [Compound 233, (E)-N-(((3S,5S)-3-(3-aminopropyl)-1-(2,2-diphenylethyl)-2-oxo-1,4-diazepan-5-yl)methyl)-3-(2,4-difluorophenyl)acrylamide]
20 | < 0.1 | NCCC[C@@H]1N[C@H](CNC(=O)/C=C/c2ccc(Br)cc2)CCN(CC(c2ccccc2)c2ccccc2)C1=O [Compound 260, (E)-N-(((3S,5S)-3-(3-aminopropyl)-1-(2,2-diphenylethyl)-2-oxo-1,4-diazepan-5-yl)methyl)-3-(4-bromophenyl)acrylamide]
21 | < 1 | Cc1ccc(C(=O)NC[C@@H]2CCN(CC(c3ccccc3)c3ccccc3)C(=O)[C@H](CCN)N2)cc1C [Compound 281, N-(((3S,5S)-3-(2-aminoethyl)-1-(2,2-diphenylethyl)-2-oxo-1,4-diazepan-5-yl)methyl)-3,4-dimethylbenzamide]
22 | < 0.1 | N=C(N)NCCC[C@@H]1N[C@H](CNC(=O)c2ccc3cc(F)ccc3c2)CCN(CC(c2ccccc2)c2ccccc2)C1=O [Compound 188, N-(((3S,5S)-1-(2,2-diphenylethyl)-3-(3-guanidinopropyl)-2-oxo-1,4-diazepan-5-yl)methyl)-6-fluoro-2-naphthamide]
23 | < 0.1 | NCCC[C@@H]1N[C@H](CNC(=O)c2ccc(Cl)c(Cl)c2)CCN(CC(c2ccccc2)c2ccccc2)C1=O [Compound 224, N-(((3S,5S)-3-(3-aminopropyl)-1-(2,2-diphenylethyl)-2-oxo-1,4-diazepan-5-yl)methyl)-3,4-dichlorobenzamide]
24 | < 1 | N=C(N)NCCC[C@@H]1N[C@H](CNC(=O)c2cnc3ccccc3n2)CCN(CC(c2ccccc2)c2ccccc2)C1=O [Compound 113, N-(((3S,5S)-1-(2,2-diphenylethyl)-3-(3-guanidinopropyl)-2-oxo-1,4-diazepan-5-yl)methyl)quinoxaline-2-carboxamide]
25 | < 0.1 | Cc1ccc(C(=O)NC[C@@H]2CCN(CC(c3ccccc3)c3ccccc3)C(=O)[C@H](CCCNC(=N)N)N2)cc1C [Compound 144, N-(((3S,5S)-1-(2,2-diphenylethyl)-3-(3-guanidinopropyl)-2-oxo-1,4-diazepan-5-yl)methyl)-3,4-dimethylbenzamide]
26 | < 0.1 | N=C(N)NCCC[C@@H]1N[C@H](CNC(=O)c2ccc3sccc3c2)CCN(CC(c2ccccc2)c2ccccc2)C1=O [Compound 185, N-(((3S,5S)-1-(2,2-diphenylethyl)-3-(3-guanidinopropyl)-2-oxo-1,4-diazepan-5-yl)methyl)benzo[b]thiophene-5-carboxamide]
27 | < 10 | N=C(N)NCCC[C@@H]1N[C@H](CNC(=O)C2Cc3ccccc3C2)CCN(CC(c2ccccc2)c2ccccc2)C1=O [Compound 133, N-(((3S,5S)-1-(2,2-diphenylethyl)-3-(3-guanidinopropyl)-2-oxo-1,4-diazepan-5-yl)methyl)-2,3-dihydro-1H-indene-2-carboxamide]

Same assay, conditions: hMC5R binding assay as in Example 102; compounds tested as trifluoroacetate or hydrochloride salts, or as free base

Row | IC50 [µM] | Compound
28 | < 10 | CC[C@H](CN1CC[C@H](CNC(=O)c2ccc3cc(Cl)ccc3c2)N[C@H](CC(C)(C)N)C1=O)c1ccccc1 [Compound 494, N-(((3R,5R)-3-(2-amino-2-methylpropyl)-2-oxo-1-((S)-2-phenylbutyl)-1,4-diazepan-5-yl)methyl)-6-chloro-2-naphthamide]
